Experimental data reported in patent publication US5288706A, “Medicament for prevention and remedy of diseases of the pancreas and others” (Mitsui Toatsu Chemicals, Incorporated, priority 1987, dated 1994).
Read-outs that look alike come from different tables or passages of the source. Non-standard residues stand in square brackets, D forms with d. Residues, ends and D or L forms follow the SMILES beside them. pGlu = O=C1CC[C@@H](C(=O)O)N1

Experiments:
ddy male mice = settings: mouse, in vivo, sc
Description: (§1) Thus, the medicament of the present invention is a safe medicament of extremely low toxicity and can be administered for a long period of time.
No toxicity was observed when 50 mg/kg and 100 mg/kg of FTS as the effective ingredient were subcutaneously administered for consecutive 14 days to a group of five ddy male mice of 5 weeks old.

Wister rats = settings: rat, in vivo, sc, 30 mg/kg
Description: as §1
No toxicity was observed when 30 mg/kg of FTS as the effective ingredient wa subcutaneously administered for consecutive 21 days to a group of ten Wister rats of 5 weeks old.

C[C@H](NC(=O)[C@@H]1CCC(=O)N1)C(=O)N[C@@H](CCCCN)C(=O)N[C@@H](CO)C(=O)N[C@@H](CCC(N)=O)C(=O)NCC(=O)NCC(=O)N[C@@H](CO)C(=O)N[C@@H](CC(N)=O)C(=O)O [FTS, pGlu-Ala-Lys-Ser-Gln-Gly-Gly-Ser-Asn] ([pGlu]AKSQGGSN-OH)
toxicity (ddy male mice; 50 mg/kg): No toxicity
toxicity (ddy male mice; 100 mg/kg): No toxicity
toxicity (Wister rats): No toxicity
toxicity (external behavior observation, biochemical diagnosis of sera, pathological anatomy) (Wister rats): no abnormal symptom
